{"source": "patent US20250241901A1", "about": "“ACTIVATION OF MNRR1 / CHCHD2 AS A THERAPEUTIC TARGET FOR MITOCHONDRIA ASSOCIATED DISORDERS” (Wayne State University, priority 2024, published 2025)", "type_in_all_cases": "cell-based, human", "key": {"MNRR1": {"test_system": "MNRR1", "experiment": "MNRR1 transcript levels in MELAS cells (RT-PCR)", "conditions": "relative to 18S rRNA", "method": "FIGS. 6A-6C: FIG. 6A: Above, Chemical structures of nitazoxanide, its metabolites, and similar compounds. Abbreviations: P4, Phenyl-4-aminosalicylic acid; 4ABA, 4-Aminobenzanilide; 4ASA, 4-Amino salicylic acid; BA, Benzanilide; PBO, Phenyl benzoate; PSA, Phenyl salicylic acid; 2AN, 2-Amino 5-nitrothiazole. Below, Equal amounts of lysates of MELAS cells treated with Vehicle (DMSO) or the various compounds (10 μM) for 24 h were separated on an SDS-PAGE gel and probed for MNRR1 levels. Actin was probed as a loading control and numbers below represent an average and SD of 3 biological replicates. FIGS. 6B-6C: MNRR1 transcript levels are shown relative to 18S rRNA (n=4 biological replicates, error bars represent SE). In all figures, * indicates p<0.05, ** indicates p<0.005.\nReal-time polymerase chain reaction (RT-PCR): Total cellular RNA was extracted from MELAS cells with a RNeasy Plus Mini Kit (Qiagen) according to the manufacturer's instructions. Complementary DNA (cDNA) was generated by reverse transcriptase polymerase chain reaction (PCR) using the ProtoScript® II First Strand cDNA Synthesis Kit (New England Biolabs, Ipswich, MA). Transcript levels were measured by real time PCR using SYBR green on an ABI 7500 system. Real-time analysis was performed by the ΔΔ^Ct method. […]"}, "HIF2α [1]": {"test_system": "HIF2α", "experiment": "HIF2α transcript levels (RT-PCR)", "conditions": "18S rRNA as housekeeper", "text": "FIG. 13: RT-PCR for measuring HIF2α levels. 18S rRNA was used as housekeeper for both analyses (n=3 biological replicates).\nReal-time polymerase chain reaction (RT-PCR): Total cellular RNA was extracted from MELAS cells with a RNeasy Plus Mini Kit (Qiagen) according to the manufacturer's instructions. Complementary DNA (cDNA) was generated by reverse transcriptase polymerase chain reaction (PCR) using the ProtoScript® II First Strand cDNA Synthesis Kit (New England Biolabs, Ipswich, MA). Transcript levels were measured by real time PCR using SYBR green on an ABI 7500 system. Real-time analysis was performed by the ΔΔ^Ct method. The primers used were MNRR1 forward: 5′-[…]-3′ (SEQ ID NO: 9), reverse: 5′-[…]-3′ (SEQ ID NO: 10); 18s forward: 5′-[…]-3′ (SEQ ID NO: 11), reverse: 5′-[…]-3′ (SEQ ID NO: 12), PHD1(EGLN2) forward: 5′-[…]-3′ (SEQ ID NO: 13), reverse: 3′-TCCTTGGCATCAAAATACC-5′ [32](SEQ ID NO: 14); PHD3(EGLN3) forward 5′-[…]-3′ (SEQ ID NO: 15), reverse: 3′-ATGCAGGTGATGCAGCGA-5′ [33](SEQ ID NO: 16) and HIF2α (EPAS1) forward: 5′-[…]-3′ (SEQ ID NO: 17), reverse: 3′-[…]-5′ (SEQ ID NO: 18)."}, "HIF2α [2]": {"test_system": "HIF2α", "experiment": "HIF2α protein levels in MELAS cybrid cells (immunoblot)", "method": "FIGS. 10A-10E: The reduction of MNRR1 in MELAS cells is via HIF2α acting at the ORE and not the HRE. FIG. 10A: Above, Equal amounts of MELAS cell lysates, treated with vehicle (DMSO) or increasing amounts of tizoxanide (2.5 to 40 μM) for 24 h, were separated on an SDS-PAGE gel and probed for HIF2α, MNRR1, and Tubulin. Below, Protein quantification for MNRR1 and HIF2α relative to Tubulin. FIG. 10B: Dual luciferase reporter assay showing relative activation of MNRR1-luciferase in MELAS cybrid cells overexpressing WT (FIG. 9A), Δ 801-952 (FIG. 9A), ΔORE (positions 47-53 of SEQ ID NO: 25 in FIG. 9C) or ΔHRE (positions 59-66 of SEQ ID NO: 25 in FIG. 9C). FIG. 10C: Dual luciferase reporter assay showing relative activation of HRE-luciferase levels in cybrid cells with 0% (CL9) and 70% MELAS heteroplasmy (DW7). […]\nImmunoblotting: Immunoblotting was performed as described previously. […] The clear supernatants were transferred to new tubes and quantified using the Bradford reagent with BSA as standard (BioRad, Hercules. CA). […] For detection after immunoblotting, the SuperSignal™ West Pico PLUS substrate (ThermoFisher, Waltham, MA) was used to generate chemiluminescence signal, which was detected with X-Ray film (RadTech, Vassar, MI)."}}}
{"compound": "CC(=O)Oc1ccccc1C(=O)Nc1ncc([N+](=O)[O-])s1", "note": "[nitazoxanide, Nitazoxanide]", "values": [{"measurement": "MNRR1 transcription", "setting": "MNRR1", "value": "induced its transcription"}, {"measurement": "HIF2α transcript levels", "setting": "HIF2α [1]", "value": "absence of any change"}, {"measurement": "levels of HIF2α", "setting": "HIF2α [2]; MELAS cells", "value": "reduces"}]}
{"compound": "O=C(Nc1ncc([N+](=O)[O-])s1)c1ccccc1O", "note": "[tizoxanide, Tizoxanide]", "values": [{"measurement": "MNRR1 transcription", "setting": "MNRR1", "value": "induced its transcription"}, {"measurement": "HIF2α transcript levels", "setting": "HIF2α [1]", "value": "absence of any change"}, {"measurement": "HIF2α protein levels relative to MNRR1", "setting": "HIF2α [2]; MELAS cybrid cells, 2.5 to 40 μM, 24 h", "value": "inversely proportional in a concentration dependent manner to MNRR1"}]}
